Assay results taken from patent US5126337A, “Thiazetoquinoline-3-carboxylic acid derivative and a pharmaceutical composition comprising the same” (priority 1989, dated 1992).
Converted amounts (≈) assume the structure as drawn.

What was measured:
[1] = tested on: Klebsiella pneumoniae PCI-602; assay: Antibacterial spectrum, MIC by twofold agar dilution method; type: cell-based; conditions: PCI602, 10^6 cfu/ml, standard laboratory strain, Gram -, 18 hrs at 37° C, read-out: MIC
Method: (§1) Minimum inhibitory concentrations (MIC) of test compounds were determined by the twofold agar dilution method (Chemotherapy, 29(1), 76(1981)). Overnight cultures in Mueller-Hinton broth were suspended by buffered saline gelatin. One loopful of the bacterial suspension (10^6 or 10^8 colony-forming units/ml) was incubated onto the plates containing test compounds. The plates were incubated for 18 hrs at 37° C. The MIC was defined by the lowest concentration of the drug that inhibited visible growth of bacteria.

[2] = tested on: Male mice of ddY strain; assay: Convulsion inducing activity in combination with fenbufen; conditions: 30 min after fenbufen 100 mg/kg orally
Method: Male mice of ddY strain, 5 weeks old, were used. Fenbufen suspended in 0.5% carboxymethyl cellulose was administered orally at a dose of 100 mg/kg. After thirty minutes, test compounds suspended in 0.5% carboxymethyl cellulose were injected intraperitoneally (i.p.) at a dose of 100 mg/kg or 300 mg/kg.

[3] = tested on: Escherichia coli NIHJ JC-2; assay: Antibacterial spectrum, MIC by twofold agar dilution method; type: cell-based; conditions: NIHJJC2, 10^6 cfu/ml, standard laboratory strain, Gram -, 18 hrs at 37° C
Method: as §1, with “Overnight” for “Minimum inhibitory concentrations (MIC) of test compounds were determined by the twofold agar dilution method (Chemotherapy, 29(1), 76(1981)). Overnight”

[4] = tested on: Staphylococuss aureus FDA 209PJC-1; assay: as above; type: cell-based; conditions: 10^6 cfu/ml; standard laboratory strain, Gram +; 18 hrs at 37° C
Method: as §1, with “Overnight” for “Minimum inhibitory concentrations (MIC) of test compounds were determined by the twofold agar dilution method (Chemotherapy, 29(1), 76(1981)). Overnight”

[5] = tested on: Pseudomonas aeruginosa HNR 1489; assay: as above; type: cell-based; conditions: HNR1489, 10^6 cfu/ml, clinically isolated strain, Gram -, 18 hrs at 37° C
Method: as §1, with “Overnight” for “Minimum inhibitory concentrations (MIC) of test compounds were determined by the twofold agar dilution method (Chemotherapy, 29(1), 76(1981)). Overnight”

[6] = tested on: Serratia marcescens IAM 1184; assay: as above; type: cell-based; conditions: IAM1184, 10^6 cfu/ml, standard laboratory strain, Gram -, 18 hrs at 37° C
Method: as §1, with “Overnight” for “Minimum inhibitory concentrations (MIC) of test compounds were determined by the twofold agar dilution method (Chemotherapy, 29(1), 76(1981)). Overnight”

[7] = tested on: Enterococcus faecalis HPC 975; assay: as above; type: cell-based; conditions: HPC975, 10^6 cfu/ml, clinically isolated strain, Gram +, 18 hrs at 37° C
Method: as §1, with “Overnight” for “Minimum inhibitory concentrations (MIC) of test compounds were determined by the twofold agar dilution method (Chemotherapy, 29(1), 76(1981)). Overnight”

[8] = tested on: Klebsiella pneumoniae HNR 869; assay: as above; type: cell-based; conditions: HNR869, 10^6 cfu/ml, clinically isolated strain, Gram -, 18 hrs at 37° C
Method: as §1, with “Overnight” for “Minimum inhibitory concentrations (MIC) of test compounds were determined by the twofold agar dilution method (Chemotherapy, 29(1), 76(1981)). Overnight”

[9] = tested on: Acinetobacter calcoaceticus HNR 916; assay: as above; type: cell-based; conditions: HNR916, 10^6 cfu/ml, clinically isolated strain, Gram -, 18 hrs at 37° C
Method: as §1, with “Overnight” for “Minimum inhibitory concentrations (MIC) of test compounds were determined by the twofold agar dilution method (Chemotherapy, 29(1), 76(1981)). Overnight”

[10] = tested on: Enterococcus faecalis HPC 948; assay: as above; type: cell-based; conditions: HPC948, 10^6 cfu/ml, clinically isolated strain, Gram +, 18 hrs at 37° C
Method: as §1, with “Overnight” for “Minimum inhibitory concentrations (MIC) of test compounds were determined by the twofold agar dilution method (Chemotherapy, 29(1), 76(1981)). Overnight”

[11] = tested on: Enterobacter cloacae HNR 1946; assay: as above; type: cell-based; conditions: HNR1946, 10^6 cfu/ml, clinically isolated strain, Gram -, 18 hrs at 37° C
Method: as §1, with “Overnight” for “Minimum inhibitory concentrations (MIC) of test compounds were determined by the twofold agar dilution method (Chemotherapy, 29(1), 76(1981)). Overnight”

[12] = tested on: Staphylococcuss aureus HPC 527; assay: as above; type: cell-based; conditions: 10^6 cfu/ml; clinically isolated strain, Gram +; 18 hrs at 37° C
Method: as §1, with “Overnight” for “Minimum inhibitory concentrations (MIC) of test compounds were determined by the twofold agar dilution method (Chemotherapy, 29(1), 76(1981)). Overnight”

[13] = tested on: Klebsiella pneumoniae HNR 828; assay: as above; type: cell-based; conditions: HNR828, 10^6 cfu/ml, clinically isolated strain, Gram -, 18 hrs at 37° C
Method: as §1, with “Overnight” for “Minimum inhibitory concentrations (MIC) of test compounds were determined by the twofold agar dilution method (Chemotherapy, 29(1), 76(1981)). Overnight”

[14] = tested on: Staphylococcuss aureus HPC 292; assay: as above; type: cell-based; conditions: 10^6 cfu/ml; clinically isolated strain, Gram +; 18 hrs at 37° C; read-out: MIC
Method: as §1, with “Overnight” for “Minimum inhibitory concentrations (MIC) of test compounds were determined by the twofold agar dilution method (Chemotherapy, 29(1), 76(1981)). Overnight”

[15] = tested on: Pseudomonas aeruginosa HNR 1472; assay: as above; type: cell-based; conditions: HNR1472, 10^6 cfu/ml, clinically isolated strain, Gram -, 18 hrs at 37° C
Method: as §1, with “Overnight” for “Minimum inhibitory concentrations (MIC) of test compounds were determined by the twofold agar dilution method (Chemotherapy, 29(1), 76(1981)). Overnight”

[16] = tested on: Enterobacter cloacae HNR 1939; assay: as above; type: cell-based; conditions: HNR1939, 10^6 cfu/ml, clinically isolated strain, Gram -, 18 hrs at 37° C
Method: as §1, with “Overnight” for “Minimum inhibitory concentrations (MIC) of test compounds were determined by the twofold agar dilution method (Chemotherapy, 29(1), 76(1981)). Overnight”

[17] = tested on: Pseudomonas aeruginosa IFO 3445; assay: as above; type: cell-based; conditions: IFO3445, 10^6 cfu/ml, standard laboratory strain, Gram -, 18 hrs at 37° C
Method: as §1, with “Overnight” for “Minimum inhibitory concentrations (MIC) of test compounds were determined by the twofold agar dilution method (Chemotherapy, 29(1), 76(1981)). Overnight”

[18] = tested on: Enterobacter cloacae HNR 1941; assay: as above; type: cell-based; conditions: HNR1941, 10^6 cfu/ml, clinically isolated strain, Gram -, 18 hrs at 37° C
Method: as §1, with “Overnight” for “Minimum inhibitory concentrations (MIC) of test compounds were determined by the twofold agar dilution method (Chemotherapy, 29(1), 76(1981)). Overnight”

[19] = tested on: Klebsiella pneumoniae HNR 858; assay: as above; type: cell-based; conditions: HNR858, 10^6 cfu/ml, clinically isolated strain, Gram -, 18 hrs at 37° C
Method: as §1, with “Overnight” for “Minimum inhibitory concentrations (MIC) of test compounds were determined by the twofold agar dilution method (Chemotherapy, 29(1), 76(1981)). Overnight”

[20] = tested on: Enterococcus faecalis HPC 984; assay: as above; type: cell-based; conditions: HPC984, 10^6 cfu/ml, clinically isolated strain, Gram +, 18 hrs at 37° C
Method: as §1, with “Overnight” for “Minimum inhibitory concentrations (MIC) of test compounds were determined by the twofold agar dilution method (Chemotherapy, 29(1), 76(1981)). Overnight”

[21] = tested on: Acinetobacter calcoaceticus HNR 939; assay: as above; type: cell-based; conditions: HNR939, 10^6 cfu/ml, clinically isolated strain, Gram -, 18 hrs at 37° C
Method: as §1, with “Overnight” for “Minimum inhibitory concentrations (MIC) of test compounds were determined by the twofold agar dilution method (Chemotherapy, 29(1), 76(1981)). Overnight”

[22] = tested on: Pseudomonas aeruginosa HNR 1537; assay: as above; type: cell-based; conditions: HNR1537, 10^6 cfu/ml, clinically isolated strain, Gram -, 18 hrs at 37° C
Method: as §1, with “Overnight” for “Minimum inhibitory concentrations (MIC) of test compounds were determined by the twofold agar dilution method (Chemotherapy, 29(1), 76(1981)). Overnight”

[23] = tested on: Serratia marcescens HNR 1767; assay: as above; type: cell-based; conditions: HNR1767, 10^6 cfu/ml, clinically isolated strain, Gram -, 18 hrs at 37° C
Method: as §1, with “Overnight” for “Minimum inhibitory concentrations (MIC) of test compounds were determined by the twofold agar dilution method (Chemotherapy, 29(1), 76(1981)). Overnight”

[24] = tested on: Serratia marcescens HNR 1544; assay: as above; type: cell-based; conditions: HNR1544, 10^6 cfu/ml, clinically isolated strain, Gram -, 18 hrs at 37° C
Method: as §1, with “Overnight” for “Minimum inhibitory concentrations (MIC) of test compounds were determined by the twofold agar dilution method (Chemotherapy, 29(1), 76(1981)). Overnight”

[25] = tested on: Enterobacter cloacae 963; assay: as above; type: cell-based; conditions: 10^6 cfu/ml, standard laboratory strain, Gram -, 18 hrs at 37° C
Method: as §1, with “Overnight” for “Minimum inhibitory concentrations (MIC) of test compounds were determined by the twofold agar dilution method (Chemotherapy, 29(1), 76(1981)). Overnight”

[26] = tested on: Acinetobacter calcoaceticus HNR 904; assay: as above; type: cell-based; conditions: HNR904, 10^6 cfu/ml, clinically isolated strain, Gram -, 18 hrs at 37° C
Method: as §1, with “Overnight” for “Minimum inhibitory concentrations (MIC) of test compounds were determined by the twofold agar dilution method (Chemotherapy, 29(1), 76(1981)). Overnight”

[27] = tested on: Serratia marcescens HNR 1792; assay: as above; type: cell-based; conditions: HNR1792, 10^6 cfu/ml, clinically isolated strain, Gram -, 18 hrs at 37° C
Method: as §1, with “Overnight” for “Minimum inhibitory concentrations (MIC) of test compounds were determined by the twofold agar dilution method (Chemotherapy, 29(1), 76(1981)). Overnight”

Row | MIC [3] [µg/mL] | MIC [4] [µg/mL] | MIC [5] [µg/mL] | MIC [6] [µg/mL] | MIC [7] [µg/mL] | MIC [8] [µg/mL] | MIC [9] [µg/mL] | MIC [10] [µg/mL] | MIC [11] [µg/mL] | MIC [12] [µg/mL] | MIC [13] [µg/mL] | MIC [14] [µg/mL] | MIC [16] [µg/mL] | MIC [17] [µg/mL] | MIC [18] [µg/mL] | MIC [19] [µg/mL] | MIC [20] [µg/mL] | MIC [21] [µg/mL] | SMILES | Number of convulsion induced/Number of animals ([2]; 100 mg/kg (i.p.)) | Number of convulsion induced/Number of animals ([2]; 300 mg/kg (i.p.)) | also measured
1 | 0.025 (≈ 0.0651 µM) | 0.05 (≈ 0.13 µM) | 0.2 (≈ 0.521 µM) | 0.05 (≈ 0.13 µM) | 12.5 (≈ 32.6 µM) | 0.78 (≈ 2.03 µM) | 0.1 (≈ 0.261 µM) | 0.78 (≈ 2.03 µM) | 0.2 (≈ 0.521 µM) | 0.05 (≈ 0.13 µM) | 3.13 (≈ 8.15 µM) | 6.25 (≈ 16.3 µM) | 0.2 (≈ 0.521 µM) | 0.1 (≈ 0.261 µM) | 1.56 (≈ 4.06 µM) | 0.2 (≈ 0.521 µM) | 0.2 (≈ 0.521 µM) | 1.56 (≈ 4.06 µM) | CC1Sc2c(C(=O)O)c(=O)c3cc(F)c(N4CCC(N)C4)c(Cl)c3n21 (stereo not shown) [Example 34, 7-(3-Amino-1-pyrrolidinyl)-8-chloro-6-fluoro-1-methyl-4-oxo-1H,4H-[1,3]thiazeto[3,2-a]quinoline-3-carboxylic acid] | 0/6 | 0/6 | MIC [1]: 0.012 µg/mL (≈ 0.0313 µM); MIC [15]: 3.13 µg/mL (≈ 8.15 µM); MIC [22]: 3.13 µg/mL (≈ 8.15 µM); MIC [23]: 6.25 µg/mL (≈ 16.3 µM); MIC [24]: 0.05 µg/mL (≈ 0.13 µM); MIC [25]: 0.025 µg/mL (≈ 0.0651 µM)
2 | 0.025 (≈ 0.068 µM) | 0.025 (≈ 0.068 µM) | 0.2 (≈ 0.544 µM) | 0.1 (≈ 0.272 µM) | 6.25 (≈ 17 µM) | 0.78 (≈ 2.12 µM) | 0.2 (≈ 0.544 µM) | 0.78 (≈ 2.12 µM) | 0.2 (≈ 0.544 µM) | 0.05 (≈ 0.136 µM) | 3.13 (≈ 8.52 µM) | 6.25 (≈ 17 µM) | 0.2 (≈ 0.544 µM) | 0.1 (≈ 0.272 µM) | 3.13 (≈ 8.52 µM) | 0.2 (≈ 0.544 µM) | 0.2 (≈ 0.544 µM) | 1.56 (≈ 4.25 µM) | CC1Sc2c(C(=O)O)c(=O)c3cc(F)c(N4CCC(N)C4)c(F)c3n21 (stereo not shown) [Example 33, 7-(3-amino-1-pyrrolidinyl)-6,8-difluoro-1-methyl-4-oxo-1H,4H-[1,3] thiazeto[3,2-a]quinoline-3-carboxylic acid] | 0/6 | 0/6 | MIC [26]: 25 µg/mL (≈ 68 µM); MIC [27]: 1.56 µg/mL (≈ 4.25 µM); MIC [22]: 12.5 µg/mL (≈ 34 µM); MIC [23]: 12.5 µg/mL (≈ 34 µM); MIC [24]: 0.05 µg/mL (≈ 0.136 µM); MIC [25]: 0.05 µg/mL (≈ 0.136 µM)
